Data taken from patent US20020049157A1, “Use of proteasome inhibitors for treating cancer, inflammation, autoimmune disease, graft rejection and septic shock” (priority 1998, published 2002).

Experiments:
Type in all cases: cell-based, human
Cyclin E-associated CDK = assay: Immunoprecipitation kinase assay, Cyclin E-associated CDK; conditions: PHA-activated T cells; LAC 10 μM added once at 0 h
Experimental: (§1) Tonsillar T cells were activated with PHA (2 μg/ml) for a period as indicated in each graph. LAC (10 μM) was added once at 0 h. The cells were harvested at 16 h, 24 h, or 40 h as indicated. An equal amount of lysate protein ([…]) was precipitated with rabbit anti-CDK4, anti-CDK2 or anti-Cyclin E antisera (2.5 μg Ab/sample). The immune complexes were assayed for their kinase activities using histone H1 as a substrate. (A) CDK4 kinase activity. (B) CDK2 kinase activity. (C) Cyclin E-associated CDK activity. The membrane in (C) was subsequently hybridized with anti-Cyclin E (1 μg/ml) followed by ^125I-protein A for the evaluation of the protein level of Cyclin E.
Since at the late G1 phase Cyclin E is the predominant partner of CDK2 (Sherr, 1993, Cell 73:1059), we next examined the Cyclin E-associated CDK activity.
Lymphocytes were lysed by a lysis buffer as used in the immunoblotting (Chen et al., 1996, supra), and cleared lysates were quantitated for their protein content. For immunoprecipitation, 50 μl of rabbit antisera against CDK2, CDK4 or Cyclin E were added to the lysates equivalent to 20 or 40 μg protein depending on the experiment. […] The proteins were then transferred to PVDF membranes and the signals were detected by autoradiography.

Cyclin E = assay: Immunoblotting of Cyclin E level in T cells
Experimental: as §1
Tonsillar T cells were stimulated with PHA (2 μg/ml) for 40 h in the presence of hydroxyurea (1 mM), and these cells were blocked at the G1/S boundary (G1 block). The synchronization was released by washing out hydroxyurea, and the cells were recultured in medium containing 2 μg/ml PHA in the absence or presence of LAC ([…], added once at the time of the release). The cells were harvested at 6 h and 22 h post the G1/S block. […]
(§2) Immunoblotting was employed to evaluate the levels of Cyclin E, cyclin A, p21^Cip1 and p27^Kip1. […] The cleared lysates were quantitated for protein concentrations. […] The signals on the membrane were detected by [^125I]-protein A followed by autoradiography.

p27^Kip1 = assay: Immunoblotting of p27Kip1 level in T cells; conditions: PHA, LAC 10 μM added once at 0 h
Experimental: Tonsillar T cells were stimulated with PHA (2 μg/ml) for 16 h, 40 or 64 h in the absence or presence of LAC (10 μM). For the 16 h and 40 h culture, LAC was added once at 0 h. For the 64 h culture, LAC was added once at 40 h. The cell lysates were resolved in 10% SDS-PAGE, and blotted onto PVDF membranes. The membranes were hybridized with rabbit anti-p27^Kip1 antisera (FIG. 9A) or with anti-p21^Cip1 antisera (FIG. 9B) followed by ^125-protein A. The experiments were performed three times, and similar results were obtained. Representative data is shown.
In addition to the cyclin levels, the CDK activities are also controlled by several low molecular weight inhibitors. We have examined in this study the effect of the proteasome on the CDK inhibitors p27^Kip1 (Hall et al., 1995, supra) and p21^Cip1 (el-Deiry et al., 1993, Cell 75:817). […] This is in agreement with previous reports (Hengst et al., 1996, Science 271:1861; Nourse et al., 1994, Nature 372:570). […] The blockage was less obvious when assayed at 40 h, probably because the gradual loss of LAC activity during the 40 h culture. […]
as §2

Cyclin E-associated kinase activity (Cyclin E-associated CDK): almost completely inhibited
Compound: CC(=O)N[C@@H](CSC(=O)[C@]1([C@@H](O)C(C)C)NC(=O)[C@H](C)[C@@H]1O)C(=O)O [LAC, lactacystin]
decline of Cyclin E level after the G1/S boundary (Cyclin E; PHA plus hydroxyurea block, released, LAC added at release, 6 h and 22 h): decline was prevented | Cyclin E protein level (Cyclin E; PHA-activated T cells, LAC added once at 0 h): increased | decrease (degradation) of p27Kip1 (p27^Kip1; assayed at 16 h): significantly blocked the decrease | blockage of p27Kip1 decrease (p27^Kip1; assayed at 40 h): less obvious
